From paper PMC8048981, “Cys–Cys and Cys–Lys Stapling of Unprotected Peptides Enabled by Hypervalent Iodine Reagents” (Angewandte Chemie (International Ed. in English), 2021)
Like-named read-outs stand apart in the source and are kept apart here.

Tests used:
[1] = the molecule shown is the open-chain precursor, scale: % relative absorbance at 210 nm vs linear peptide standard
[2] = Two-component Cys-Lys stapling with EBX-PFP ester reagents 9a/9b (1.1 equiv), DIPEA (2.5 equiv), preparative RP-HPLC; details: the molecule shown is the open-chain precursor, DMF, 1.0 mM, 37.0 °C
[3] = Two-component Cys-Lys stapling: Cys S-alkynylation by EBX-pentafluorophenyl ester reagents 9a-9d (1.1 equiv), then intramolecular Lys aminolysis of the PFP ester; DIPEA (2.5 equiv); details: the molecule shown is the open-chain precursor, DMF, 1.0 mM, 37.0 °C, scale: % relative absorbance at 210 nm vs linear peptide standard
[4] = Two-component Cys-Cys stapling with bis-hypervalent iodine reagents 8c-8e (3.0 equiv), DIPEA (2.5 equiv), overnight, preparative RP-HPLC; details: the molecule shown is the open-chain precursor, DMF, 2.0 mM, 37.0 °C
[5] = 22-membered ring, DMF, 1.0 mM, 37.0 °C, 4.0 h
[6] = 24-membered ring, DMF, 1.0 mM, 37.0 °C, 4.0 h
[7] = 33-membered ring, DMF, 1.0 mM, 37.0 °C, 4.0 h

Q: For `CSCC[C@H](NC(=O)[C@H](CC(N)=O)NC(=O)[C@H](CCCCN)NC(=O)[C@H](Cc1ccc(O)cc1)NC(=O)[C@H](CS)NC(=O)[C@H](CCC(=O)O)NC(=O)[C@H](Cc1c[nH]cn1)NC(=O)[C@H](Cc1c[nH]c2ccccc12)NC(=O)[C@H](CSC#C[Si](C#CI1OC(C(F)(F)F)(C(F)(F)F)c2ccccc21)(C(C)C)C(C)C)NC(=O)[C@H](CCCNC(=N)N)NC(=O)[C@H](CCC(=O)O)NC(=O)[C@@H](N)CO)C(N)=O`, which ring closure, conversion by HPLC [1, 5] is on record?
A: 79

Q: With `CSCC[C@H](NC(=O)[C@H](CC(N)=O)NC(=O)[C@H](CCCCN)NC(=O)[C@H](Cc1ccc(O)cc1)NC(=O)[C@H](CS)NC(=O)[C@H](CCC(=O)O)NC(=O)[C@H](Cc1c[nH]cn1)NC(=O)[C@H](Cc1c[nH]c2ccccc12)NC(=O)[C@H](CSC#C[Si](O[Si](C#CI1OC(C(F)(F)F)(C(F)(F)F)c2ccccc21)(C(C)C)C(C)C)(C(C)C)C(C)C)NC(=O)[C@H](CCCNC(=N)N)NC(=O)[C@H](CCC(=O)O)NC(=O)[C@@H](N)CO)C(N)=O` as the molecule, how does the ring closure, conversion by HPLC [1, 6] read?
A: 15

Q: Which ring closure, isolated yield (% isolated yield) ([2]; 36-membered ring) does the source give for “5(6)-FAM-QSQQTFC(S-C≡C-C6H4-4-CO-OPfp)NLWRLLKQN-NH2” here?
A: 76

Q: Which ring closure, conversion by HPLC ([3]; 29-membered ring, 0.5 h) does the source give for `C[C@H](NC(=O)[C@H](CC(=O)O)NC(=O)[C@H](Cc1c[nH]cn1)NC(=O)[C@H](CCCCN)NC(=O)[C@H](Cc1ccc(O)cc1)NC(=O)[C@H](Cc1ccccc1)NC(=O)[C@H](CCC(N)=O)NC(=O)[C@H](CO)NC(=O)[C@@H](N)CCCNC(=N)N)C(=O)NCC(=O)N[C@@H](CSC#Cc1cccc(C(=O)Oc2c(F)c(F)c(F)c(F)c2F)c1)C(=O)NCC(N)=O` [H-RSQFYKHDAGC(S-C≡C-C6H4-3-CO-OPfp)G-NH2] here?
A: 22

Q: Which ring closure, conversion by HPLC ([3]; 30-membered ring, 0.5 h) does the source give for `C[C@H](NC(=O)[C@H](CC(=O)O)NC(=O)[C@H](Cc1c[nH]cn1)NC(=O)[C@H](CCCCN)NC(=O)[C@H](Cc1ccc(O)cc1)NC(=O)[C@H](Cc1ccccc1)NC(=O)[C@H](CCC(N)=O)NC(=O)[C@H](CO)NC(=O)[C@@H](N)CCCNC(=N)N)C(=O)NCC(=O)N[C@@H](CSC#Cc1ccc(C(=O)Oc2c(F)c(F)c(F)c(F)c2F)cc1)C(=O)NCC(N)=O` [H-RSQFYKHDAGC(S-C≡C-C6H4-4-CO-OPfp)G-NH2] here?
A: 54

Q: And the ring closure, conversion by HPLC ([3]; 41-membered ring, 0.5 h)?
A: 18

Q: With `CSCC[C@H](NC(=O)[C@H](CC(N)=O)NC(=O)[C@H](Cc1ccc(O)cc1)NC(=O)[C@H](CCCCN)NC(=O)[C@H](CCC(=O)O)NC(=O)[C@H](Cc1c[nH]cn1)NC(=O)[C@H](Cc1c[nH]c2ccccc12)NC(=O)[C@H](CSC#Cc1cccc(C(=O)Oc2c(F)c(F)c(F)c(F)c2F)c1)NC(=O)[C@H](CCCNC(=N)N)NC(=O)[C@H](CCC(=O)O)NC(=O)[C@@H](N)CO)C(N)=O` [H-SERC(S-C≡C-C6H4-3-CO-OPfp)WHEKYNM-NH2] as the molecule, how does the ring closure, conversion by HPLC ([3]; 26-membered ring, 0.5 h) read?
A: 20

Q: For `CSCC[C@H](NC(=O)[C@H](CC(N)=O)NC(=O)[C@H](Cc1ccc(O)cc1)NC(=O)[C@H](CCCCN)NC(=O)[C@H](CCC(=O)O)NC(=O)[C@H](Cc1c[nH]cn1)NC(=O)[C@H](Cc1c[nH]c2ccccc12)NC(=O)[C@H](CSC#Cc1ccc(C(=O)Oc2c(F)c(F)c(F)c(F)c2F)cc1)NC(=O)[C@H](CCCNC(=N)N)NC(=O)[C@H](CCC(=O)O)NC(=O)[C@@H](N)CO)C(N)=O` [H-SERC(S-C≡C-C6H4-4-CO-OPfp)WHEKYNM-NH2], which ring closure, conversion by HPLC ([3]; 27-membered ring, 0.5 h) is on record?
A: 63

Q: With “Ac-ENPEC(S-C≡C-C6H4-2-CO-OPfp)ILDKHVQRVM-NH2” as the molecule, how does the ring closure, conversion by HPLC ([3]; 25-membered ring, 0.5 h) read?
A: 101

Q: For “Ac-ENPEC(S-C≡C-C6H4-3-CO-OPfp)ILDKHVQRVM-NH2”, which ring closure, isolated yield (% isolated yield) ([2]; 26-membered ring) is on record?
A: 7

Q: And the ring closure, conversion by HPLC ([3]; 26-membered ring, 0.5 h)?
A: 34

Q: Which ring closure, conversion by HPLC [1, 6] does the source give for “Ac-ENPEC(S-C≡C-C6H4-3-C≡C-I[bis-CF3 benziodoxole])ILDCHVQRVM-NH2” here?
A: 13

Q: With “Ac-ENPEC(S-C≡C-C6H4-4-CO-OPfp)ILDKHVQRVM-NH2” as the molecule, how does the ring closure, isolated yield (% isolated yield) ([2]; 27-membered ring) read?
A: 52

Q: And the ring closure, conversion by HPLC ([3]; 27-membered ring, 0.5 h)?
A: 62

Q: For “Ac-ENPEC(S-C≡C-C6H4-4-C≡C-I[bis-CF3 benziodoxole])ILDCHVQRVM-NH2”, which ring closure, conversion by HPLC ([1]; 25-membered ring) is on record?
A: 27

Q: Which ring closure, conversion by HPLC [1, 5] does the source give for “Ac-ENPEC(S-C≡C-Si(cHex)2-C≡C-I[bis-CF3 benziodoxole])ILDCHVQRVM-NH2” here?
A: 89

Q: With “Ac-ENPEC(S-C≡C-Si(iPr)2-C≡C-I[bis-CF3 benziodoxole])ILDCHVQRVM-NH2” as the molecule, how does the ring closure, isolated yield (% isolated yield) ([4]; 22-membered ring) read?
A: 46

Q: And the ring closure, conversion by HPLC [1, 5]?
A: 98

Q: For “Ac-ENPEC(S-C≡C-Si(iPr)2-O-Si(iPr)2-C≡C-I[bis-CF3 benziodoxole])ILDCHVQRVM-NH2”, which ring closure, isolated yield (% isolated yield) ([4]; 24-membered ring) is on record?
A: 29

Q: What about the ring closure, conversion by HPLC [1, 6] of the same molecule?
A: 51

Q: For “Ac-QSQQTFC(S-C≡C-C6H4-2-CO-OPfp)NLWRLLKQN-NH2”, which ring closure, conversion by HPLC ([3]; 34-membered ring, 0.5 h) is on record?
A: 123

Q: With “Ac-QSQQTFC(S-C≡C-C6H4-3-CO-OPfp)NLWRLLKQN-NH2” as the molecule, how does the ring closure, isolated yield (% isolated yield) ([2]; 35-membered ring) read?
A: 55

Q: And the ring closure, conversion by HPLC ([3]; 35-membered ring, 0.5 h)?
A: 110

Q: Which ring closure, conversion by HPLC [1, 7] does the source give for “Ac-QSQQTFC(S-C≡C-C6H4-3-C≡C-I[bis-CF3 benziodoxole])NLWRLLCQN-NH2” here?
A: 13

Q: Which results are given for “Ac-QSQQTFC(S-C≡C-C6H4-4-CO-OPfp)NLWRLLKQN-NH2”?
A: ring closure, isolated yield (% isolated yield) ([2]; 36-membered ring): 87; ring closure, conversion by HPLC ([3]; 36-membered ring, 0.5 h): 117

Q: For “Ac-QSQQTFC(S-C≡C-C6H4-4-C≡C-I[bis-CF3 benziodoxole])NLWRLLCQN-NH2”, which ring closure, conversion by HPLC ([1]; 34-membered ring, DMF, 1.0 mM, 37.0 °C, 4.0 h) is on record?
A: 46

Q: For “Ac-QSQQTFC(S-C≡C-Si(cHex)2-C≡C-I[bis-CF3 benziodoxole])NLWRLLCQN-NH2”, which ring closure, isolated yield (% isolated yield) ([4]; 31-membered ring) is on record?
A: 22

Q: What does the source list for “Ac-QSQQTFC(S-C≡C-Si(iPr)2-C≡C-I[bis-CF3 benziodoxole])NLWRLLCQN-NH2”?
A: ring closure, isolated yield (% isolated yield) ([4]; 31-membered ring): 13; ring closure, conversion by HPLC ([1]; 31-membered ring, DMF, 1.0 mM, 37.0 °C, 4.0 h): 30

Q: Which ring closure, isolated yield (% isolated yield) ([4]; 33-membered ring) does the source give for “Ac-QSQQTFC(S-C≡C-Si(iPr)2-O-Si(iPr)2-C≡C-I[bis-CF3 benziodoxole])NLWRLLCQN-NH2” here?
A: 17

Q: And the ring closure, conversion by HPLC [1, 7]?
A: 30

Q: For “Ac-YGGEAAREAC(S-C≡C-C6H3-3,5-(CO-OPfp)2)AREKAARE-NH2”, which ring closure, conversion by HPLC ([3]; 26-membered ring, 0.25 h) is on record?
A: 70

Q: Which ring closure, conversion by HPLC ([3]; 25-membered ring, 0.5 h) does the source give for “Ac-YGGEAAREAC(S-C≡C-C6H4-2-CO-OPfp)AREKAARE-NH2” here?
A: 118

Q: Which results are given for “Ac-YGGEAAREAC(S-C≡C-C6H4-3-CO-OPfp)AREKAARE-NH2”?
A: ring closure, isolated yield (% isolated yield) ([2]; 26-membered ring): 44; ring closure, conversion by HPLC ([3]; 26-membered ring, 0.5 h): 77

Q: Which results are given for “Ac-YGGEAAREAC(S-C≡C-C6H4-4-CO-OPfp)AREKAARE-NH2”?
A: ring closure, isolated yield (% isolated yield) ([2]; 27-membered ring): 65; ring closure, conversion by HPLC ([3]; 27-membered ring, 0.5 h): 114

Q: With “Ac-YGGEAAREAC(S-C≡C-C6H4-4-CO-OPfp)AREKAAREK-NH2” as the molecule, how does the ring closure, conversion by HPLC ([3]; 27-membered ring, 0.5 h) read?
A: 95

Q: With “Ac-YGGEAAREAC(S-C≡C-Si(cHex)2-C≡C-I[bis-CF3 benziodoxole])ARECAARE-NH2” as the molecule, how does the ring closure, conversion by HPLC ([1]; 22-membered ring) read?
A: 69

Q: Which ring closure, isolated yield (% isolated yield) ([4]; 22-membered ring) does the source give for “Ac-YGGEAAREAC(S-C≡C-Si(iPr)2-C≡C-I[bis-CF3 benziodoxole])ARECAARE-NH2” here?
A: 48

Q: What about the ring closure, conversion by HPLC ([1]; 22-membered ring) of the same molecule?
A: 72

Q: With “Ac-YGGEAAREAC(S-C≡C-Si(iPr)2-O-Si(iPr)2-C≡C-I[bis-CF3 benziodoxole])ARECAARE-NH2” as the molecule, how does the ring closure, isolated yield (% isolated yield) ([4]; 24-membered ring) read?
A: 19

Q: And the ring closure, conversion by HPLC ([1]; 24-membered ring)?
A: 9

Q: For “Ac-YGGEAARK(ivDde)AC(S-C≡C-C6H4-3-CO-OPfp)AREKAARE-NH2”, which ring closure, conversion by HPLC ([3]; 26-membered ring, 0.5 h) is on record?
A: 72

Q: With “Ac-YGGEAARK(ivDde)AC(S-C≡C-C6H4-4-CO-OPfp)AREKAARE-NH2” as the molecule, how does the ring closure, conversion by HPLC ([3]; 27-membered ring, 0.5 h) read?
A: 117

Q: For “Ac-YGGEAARKAC(S-C≡C-C6H4-3-CO-OPfp)AREKAARE-NH2”, which ring closure, conversion by HPLC ([3]; 26-membered ring, 0.5 h) is on record?
A: 74

Q: For “Ac-YGGEAARKAC(S-C≡C-C6H4-4-CO-OPfp)AREKAARE-NH2”, which ring closure, conversion by HPLC ([3]; 27-membered ring, 0.5 h) is on record?
A: 92

Q: Which ring closure, conversion by HPLC ([3]; 27-membered ring, 0.5 h) does the source give for “Ac-YGGEKAREAC(S-C≡C-C6H4-4-CO-OPfp)AREKAARE-NH2” here?
A: 91
